#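 Method: 48-hour compound exposure of cells in 96-well plates, five concentrations, linear interpolation of endpoints. Here, GI50 denotes the concentration required for 50% inhibition of growth. TGI: total growth inhibition.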
# Experiments:
# Test in all cases: inhibition of tumour cell growth, NCI panel, 48 h
# [1] = test system: 786-0 renal
# [2] = test system: A498 renal
# [3] = test system: A549 NSCLC
# [4] = test system: ACHN renal
# [5] = test system: BT-549 breast
# [6] = test system: CAKI-1 renal
# [7] = test system: CCRF-CEM leukemia
# [8] = test system: COLO 205 colon
# [9] = test system: DU-145 prostate
# [10] = test system: EKVX NSCLC
# [11] = test system: HCC-2998 colon
# [12] = test system: HCT-116 colon
# [13] = test system: HCT-15 colon
# [14] = test system: HL-60(TB) leukemia
# [15] = test system: HOP-62 NSCLC
# [16] = test system: HOP-92 NSCLC
# [17] = test system: HS 578T breast
# [18] = test system: HT29 colon
# [19] = test system: IGROV1 ovarian
# [20] = test system: K-562 leukemia
# [21] = test system: KM12 colon
# [22] = test system: LOX IMVI melanoma
# [23] = test system: M14 melanoma
# [24] = test system: MALME-3M melanoma
# [25] = test system: MCF7 breast
# [26] = test system: MDA-MB-231 breast
# [27] = test system: MDA-MB-435
# [28] = test system: MDA-MB-468 breast
# [29] = test system: MOLT-4 leukemia
# [30] = test system: NCI-H226 lung
# [31] = test system: NCI-H23 lung
# [32] = test system: NCI-H460 lung
# [33] = test system: NCI-H522 lung
# [34] = test system: NCI/ADR-RES ovarian
# [35] = test system: OVCAR-3 ovarian
# [36] = test system: OVCAR-4 ovarian
# [37] = test system: OVCAR-5 ovarian
# [38] = test system: OVCAR-8 ovarian
# [39] = test system: PC-3 prostate
# [40] = test system: RPMI-8226 leukemia
# [41] = test system: RXF 393 renal
# [42] = test system: SF-268 CNS
# [43] = test system: SF-295 CNS
# [44] = test system: SF-539 CNS
# [45] = test system: SK-MEL-2 melanoma
# [46] = test system: SK-MEL-28 melanoma
# [47] = test system: SK-MEL-5 melanoma
# [48] = test system: SK-OV-3 ovarian
# [49] = test system: SN12C renal
# [50] = test system: SNB-19 CNS
# [51] = test system: SNB-75 CNS
# [52] = test system: SR leukemia
# [53] = test system: SW-620 colon
# [54] = test system: T-47D breast
# [55] = test system: TK-10 renal
# [56] = test system: U251 CNS
# [57] = test system: UACC-257 melanoma
# [58] = test system: UACC-62 melanoma
# [59] = test system: UO-31 renal
compound,measurement,setting,value
C[C@@H](Nc1c(C#N)cnc2ccc(-c3cnc4[nH]ncc4c3)cc12)c1ccccc1,GI50,[1],2.74 µM
same,TGI,[1],11.3 µM
same,GI50,[2],2.55 µM
same,TGI,[2],6.8 µM
same,GI50,[3],2.53 µM
same,TGI,[3],10.9 µM
same,GI50,[4],0.699 µM
same,TGI,[4],11.3 µM
same,GI50,[5],0.353 µM
same,TGI,[5],4.83 µM
same,GI50,[6],2.78 µM
same,TGI,[6],10.9 µM
same,GI50,[7],2.46 µM
same,TGI,[7],> 100 µM
same,GI50,[8],16.3 µM
same,TGI,[8],37 µM
same,GI50,[9],2.76 µM
same,TGI,[9],25.2 µM
same,GI50,[10],0.827 µM
same,TGI,[10],4.45 µM
same,GI50,[11],4.69 µM
same,TGI,[11],26 µM
same,GI50,[12],3.77 µM
same,TGI,[12],16.1 µM
same,GI50,[13],3.17 µM
same,TGI,[13],16.4 µM
same,GI50,[14],1.74 µM
same,TGI,[14],7.98 µM
same,GI50,[15],3.03 µM
same,TGI,[15],19 µM
same,GI50,[16],1.08 µM
same,TGI,[16],7.29 µM
same,GI50,[17],1.27 µM
same,TGI,[17],5.37 µM
same,GI50,[18],14.5 µM
same,TGI,[18],35.2 µM
same,GI50,[19],1.91 µM
same,TGI,[19],4.07 µM
same,GI50,[20],4.67 µM
same,TGI,[20],> 100 µM
same,GI50,[21],4.2 µM
same,TGI,[21],21.5 µM
same,GI50,[22],3.12 µM
same,TGI,[22],16.7 µM
same,GI50,[23],2.43 µM
same,TGI,[23],19.1 µM
same,GI50,[24],1.16 µM
same,TGI,[24],7.27 µM
same,GI50,[25],1.87 µM
same,TGI,[25],7.81 µM
same,GI50,[26],2.38 µM
same,TGI,[26],13.8 µM
same,GI50,[27],3.5 µM
same,TGI,[27],19.5 µM
same,GI50,[28],1.16 µM
same,TGI,[28],2.67 µM
same,GI50,[29],1.61 µM
same,TGI,[29],5.02 µM
same,GI50,[30],2.85 µM
same,TGI,[30],14.3 µM
same,GI50,[31],4.31 µM
same,TGI,[31],22 µM
same,GI50,[32],2.66 µM
same,TGI,[32],13.2 µM
same,GI50,[33],1.71 µM
same,TGI,[33],11.6 µM
same,GI50,[34],3.71 µM
same,TGI,[34],34.8 µM
same,GI50,[35],2.14 µM
same,TGI,[35],11.9 µM
same,GI50,[36],3.47 µM
same,TGI,[36],18 µM
same,GI50,[37],3.89 µM
same,TGI,[37],18.3 µM
same,GI50,[38],2.33 µM
same,TGI,[38],23.5 µM
same,GI50,[39],2.58 µM
same,TGI,[39],> 100 µM
same,GI50,[40],2.04 µM
same,TGI,[40],11.3 µM
same,GI50,[41],1.26 µM
same,TGI,[41],3.55 µM
same,GI50,[42],3.56 µM
same,TGI,[42],34 µM
same,GI50,[43],2.11 µM
same,TGI,[43],10.5 µM
same,GI50,[44],2.59 µM
same,TGI,[44],12.2 µM
same,GI50,[45],3.23 µM
same,TGI,[45],16 µM
same,GI50,[46],2.06 µM
same,TGI,[46],14.4 µM
same,GI50,[47],1.71 µM
same,TGI,[47],5.96 µM
same,GI50,[48],2.16 µM
same,TGI,[48],7.98 µM
same,GI50,[49],1.57 µM
same,TGI,[49],12.8 µM
same,GI50,[50],2.48 µM
same,TGI,[50],28 µM
same,GI50,[51],1.1 µM
same,TGI,[51],5.16 µM
same,GI50,[52],2.23 µM
same,TGI,[52],19.7 µM
same,GI50,[53],4.65 µM
same,TGI,[53],23.2 µM
same,GI50,[54],2.88 µM
same,TGI,[54],8.36 µM
same,GI50,[55],2.96 µM
same,TGI,[55],8.36 µM
same,GI50,[56],4.91 µM
same,TGI,[56],22.7 µM
same,GI50,[57],3.24 µM
same,TGI,[57],16.3 µM
same,GI50,[58],1.94 µM
same,TGI,[58],5.86 µM
same,GI50,[59],0.468 µM
same,TGI,[59],10.8 µM

# Reference: PubChem BioAssay (NCI)
